# ± gives the expanded uncertainty stated by the source.
# Key:
# [1] = xn = mol fraction of the nth substance listed; details: 298.15 K, 101 kPa, Liquid
# [2] = refractive index (Na D-line) (dimensionless); xn = mol fraction of the nth substance listed; details: 298.15 K, 101 kPa, Liquid, Standard Abbe refractometry
# [3] = Vibrating tube method, x1 = 0.2
# [4] = Vibrating tube method, x1 = 0.25
# [5] = Vibrating tube method, x1 = 0.16
structure (smiles),measurement,setting,value
"OCCCCO [1,4-butanediol] + C[N+](C)(C)CCO.[Cl-]",mass density,"[1]; vibrating tube, x2 = 0.25",1061 ± 12 kg/m3
same,mass density,"[1]; vibrating tube, x2 = 0.28",1067 ± 12 kg/m3
same,mass density,"[1]; vibrating tube, x2 = 0.34",1073.1 ± 12 kg/m3
same,refractive index,[2]; x2 = 0.25,1.4656 ± 0.0011
same,refractive index,[2]; x2 = 0.28,1.468 ± 0.0011
same,refractive index,[2]; x2 = 0.34,1.4718 ± 0.0011
CCN(CC)CCO.Cl [2-(diethylamino)ethanol hydrochloride] + OCC(O)CO,mass density,"[1]; vibrating tube, x1 = 0.2",1220.4 ± 12 kg/m3
same,mass density,"[1]; vibrating tube, x1 = 0.25",1205.7 ± 12 kg/m3
same,mass density,"[1]; vibrating tube, x1 = 0.34",1183.6 ± 12 kg/m3
same,refractive index,[2]; x2 = 0.2,1.4812 ± 0.0011
same,refractive index,[2]; x2 = 0.25,1.4825 ± 0.0011
same,refractive index,[2]; x2 = 0.34,1.4853 ± 0.0011
CCN(CC)CCO.Cl [2-(diethylamino)ethanol hydrochloride] + OCCO,mass density,[1]; [3],1103.7 ± 12 kg/m3
same,mass density,[1]; [4],1101.8 ± 12 kg/m3
same,mass density,"[1]; Vibrating tube method, x1 = 0.28",1100.6 ± 12 kg/m3
same,refractive index,[2]; x1 = 0.2,1.4574 ± 0.0011
same,refractive index,[2]; x1 = 0.25,1.462 ± 0.0011
same,refractive index,[2]; x1 = 0.28,1.465 ± 0.0011
C[N+](C)(C)CCO.[Cl-] [choline chloride] + OCC(O)CO,mass density,"[1]; vibrating tube, x1 = 0.25",1203.5 ± 12 kg/m3
same,mass density,"[1]; vibrating tube, x1 = 0.34",1192.4 ± 12 kg/m3
same,mass density,"[1]; vibrating tube, x1 = 0.5",1162.2 ± 12 kg/m3
same,refractive index,[2]; x1 = 0.25,1.4818 ± 0.0011
same,refractive index,[2]; x1 = 0.34,1.4852 ± 0.0011
same,refractive index,[2]; x1 = 0.5,1.491 ± 0.0011
C[N+](C)(C)CCO.[Cl-] [choline chloride] + OCCO,mass density,"[1]; vibrating tube, x1 = 0.28",1117.3 ± 12 kg/m3
same,mass density,"[1]; vibrating tube, x1 = 0.34",1117.7 ± 12 kg/m3
same,mass density,"[1]; vibrating tube, x1 = 0.36",1118.4 ± 12 kg/m3
same,refractive index,[2]; x1 = 0.28,1.4611 ± 0.0011
same,refractive index,[2]; x1 = 0.34,1.465 ± 0.0011
same,refractive index,[2]; x1 = 0.36,1.4678 ± 0.0011
C[P+](c1ccccc1)(c1ccccc1)c1ccccc1.[Br-] [methyltriphenylphosphonium bromide] + OCC(O)CO,mass density,[1]; [3],1289.3 ± 12 kg/m3
same,mass density,[1]; [4],1298 ± 12 kg/m3
same,mass density,"[1]; Vibrating tube method, x1 = 0.34",1307.1 ± 12 kg/m3
same,refractive index,[2]; x1 = 0.2,1.5597 ± 0.0011
same,refractive index,[2]; x1 = 0.25,1.5715 ± 0.0011
same,refractive index,[2]; x1 = 0.34,1.5917 ± 0.0011
C[P+](c1ccccc1)(c1ccccc1)c1ccccc1.[Br-] [methyltriphenylphosphonium bromide] + OCCO,mass density,[1]; [5],1220.2 ± 12 kg/m3
same,mass density,[1]; [3],1233 ± 12 kg/m3
same,mass density,[1]; [4],1250.4 ± 12 kg/m3
same,refractive index,[2]; x1 = 0.16,1.5398 ± 0.0011
same,refractive index,[2]; x1 = 0.2,1.553 ± 0.0011
same,refractive index,[2]; x1 = 0.25,1.5678 ± 0.0011
C[P+](c1ccccc1)(c1ccccc1)c1ccccc1.[Br-] [methyltriphenylphosphonium bromide] + OCCOCCOCCO,mass density,[1]; [5],1186 ± 12 kg/m3
same,mass density,[1]; [3],1199.2 ± 12 kg/m3
same,mass density,[1]; [4],1216.4 ± 12 kg/m3
same,refractive index,[2]; x1 = 0.16,1.5178 ± 0.0011
same,refractive index,[2]; x1 = 0.2,1.5263 ± 0.0011
same,refractive index,[2]; x1 = 0.25,1.5417 ± 0.0011

# From the NIST ThermoML archive (doi:10.1016/j.fluid.2013.06.050)
